Columns and labels:
[1] = molecular target: AMPK alpha2/beta2/gamma3 (Homo sapiens) (UniProt P54646+O43741+Q9UGI9); assay: Activation of human AMPK alpha2/beta2/gamma3 transiently transfected in HEK293 cells assessed as phosphorylation at […]Thr172 by measuring asymptotic max incubated for 20 mins by AlphaLISA assay relative to control; assay type: cell-based
AMPK alpha2/beta2/gamma3 = AMPK alpha2/beta2/gamma3 (Homo sapiens, UniProt O43741+P54646+Q9UGI9); assay: Activation of human AMPK (alpha2/beta2/gamma3) transiently transfected in HEK293 cells assessed as phosphorylation at […]Thr172 incubated for 20 mins by AlphaLISA assay; assay type: cell-based
AMPK alpha2/beta2/gamma3, sequence (P54646 whole entry): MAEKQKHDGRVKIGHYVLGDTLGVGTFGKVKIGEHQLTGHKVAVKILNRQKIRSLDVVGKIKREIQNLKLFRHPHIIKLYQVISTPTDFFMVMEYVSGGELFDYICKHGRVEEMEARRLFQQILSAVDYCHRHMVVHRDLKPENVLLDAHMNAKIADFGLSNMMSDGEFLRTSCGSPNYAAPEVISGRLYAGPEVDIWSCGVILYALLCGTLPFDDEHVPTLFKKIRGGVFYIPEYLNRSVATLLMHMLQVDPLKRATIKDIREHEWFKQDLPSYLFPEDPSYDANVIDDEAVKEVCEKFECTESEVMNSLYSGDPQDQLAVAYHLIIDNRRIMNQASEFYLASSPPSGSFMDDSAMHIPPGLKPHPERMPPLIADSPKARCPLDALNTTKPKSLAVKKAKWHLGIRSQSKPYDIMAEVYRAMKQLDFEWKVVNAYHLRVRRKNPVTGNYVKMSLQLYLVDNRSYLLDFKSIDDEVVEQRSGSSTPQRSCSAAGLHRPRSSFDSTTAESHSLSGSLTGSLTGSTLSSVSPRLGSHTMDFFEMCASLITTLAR
AMPK alpha2/beta2/gamma3, sequence (O43741 whole entry): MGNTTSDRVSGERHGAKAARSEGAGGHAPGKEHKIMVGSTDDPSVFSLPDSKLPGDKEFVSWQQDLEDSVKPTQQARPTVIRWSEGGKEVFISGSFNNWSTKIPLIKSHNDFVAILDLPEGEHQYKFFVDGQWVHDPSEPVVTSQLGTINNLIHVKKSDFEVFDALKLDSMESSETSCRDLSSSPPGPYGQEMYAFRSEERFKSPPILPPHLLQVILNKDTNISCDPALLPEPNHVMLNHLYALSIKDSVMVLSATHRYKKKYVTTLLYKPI
AMPK alpha2/beta2/gamma3, sequence (Q9UGI9 whole entry): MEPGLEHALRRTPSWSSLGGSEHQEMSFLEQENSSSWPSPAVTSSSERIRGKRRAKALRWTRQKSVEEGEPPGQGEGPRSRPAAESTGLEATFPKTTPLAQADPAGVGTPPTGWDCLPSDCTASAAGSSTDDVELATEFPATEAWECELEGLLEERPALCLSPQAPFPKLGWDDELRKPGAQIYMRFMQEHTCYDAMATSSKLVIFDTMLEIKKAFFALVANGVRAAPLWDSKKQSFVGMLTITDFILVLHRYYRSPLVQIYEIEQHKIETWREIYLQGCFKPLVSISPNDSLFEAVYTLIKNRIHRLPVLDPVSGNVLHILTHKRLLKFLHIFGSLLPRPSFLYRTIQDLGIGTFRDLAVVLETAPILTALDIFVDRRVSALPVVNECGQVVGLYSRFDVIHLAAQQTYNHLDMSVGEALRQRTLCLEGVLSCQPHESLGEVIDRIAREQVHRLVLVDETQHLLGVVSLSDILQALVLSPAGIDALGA

AMPK alpha2/beta2/gamma3 (Homo sapiens), sequence (O43741 whole entry, looked up): as the sequence (O43741 whole entry) above
AMPK alpha2/beta2/gamma3 (Homo sapiens), sequence (P54646 whole entry, looked up): as the sequence (P54646 whole entry) above
AMPK alpha2/beta2/gamma3 (Homo sapiens), sequence (Q9UGI9 whole entry, looked up): as the sequence (Q9UGI9 whole entry) above

`Cn1cc(F)c(N2C[C@](C)(c3cccc(Cl)c3F)c3c(cnc(NC4CN(C(=O)C5CCC(F)(F)CN5)C4)c3F)C2=O)n1` (some centres not stated) was tested, and the max activation ([1]; filed as activator) was 85.5%.

`C[C@]1(c2cccc(Cl)c2F)CN(c2ncccc2F)C(=O)c2cnc(NC3CN(C(=O)C4(O)CC4)C3)c(F)c21` gave a max activation ([1]; filed as activator) of 112%.

Work on `CNCc1ccc(N2C[C@](C)(c3cccc(Cl)c3F)c3nc(NC4CN(C(=O)[C@@H]5C[C@@H]5F)C4)ncc3C2=O)cc1F` yielded an EC50 (AMPK alpha2/beta2/gamma3) of 2500 nM and a max activation ([1]; filed as activator) of 154%.

With `Cn1cc(F)c(N2C[C@](C)(c3cccc(Cl)c3F)c3c(cnc(NC4CN(C(=O)C(O)CC(F)(F)F)C4)c3F)C2=O)n1` (some centres not stated) the max activation ([1]; filed as activator) was 100%.

`CC1(c2cccc(Cl)c2F)CN(c2ncccc2F)C(=O)c2cnc(NC3CN(C(=O)N4CCC[C@@H]4CO)C3)nc21` (some centres not stated) gave a max activation ([1]; filed as activator) of 106%.

`Cn1cc(F)c(N2C[C@](C)(c3cccc(Cl)c3F)c3c(cnc(NC4CN(C(=O)CC(F)(F)F)C4)c3F)C2=O)n1` showed a max activation ([1]; filed as activator) of 90%.

In the case of `Cn1cc(F)c(N2CC(C)(c3cccc(Cl)c3F)c3c(cnc(N[C@@H]4CCN(C(=O)N5C[C@@H]6C[C@H]5CO6)C4)c3F)C2=O)n1` (some centres not stated), the max activation ([1]; filed as activator) is reported as 52.2%.

In the case of `Cn1cc(F)c(N2C[C@](C)(c3cccc(Cl)c3F)c3c(cnc(NC4CN(C(=O)[C@@H]5C[C@@H]5F)C4)c3F)C2=O)n1`, the max activation ([1]; filed as activator) is reported as 81.7%.

`Cn1cc(F)c(N2C[C@](C)(c3cccc(Cl)c3F)c3c(cnc(NC4CN(C(=O)[C@@](C)(O)C5CC5)C4)c3F)C2=O)n1` gave an EC50 (AMPK alpha2/beta2/gamma3) of 21.3 nM and a max activation ([1]; filed as activator) of 89.6%.

`CN1CCCC(N2CC(Nc3ncc4c(c3F)[C@@](C)(c3cccc(Cl)c3F)CN(c3nn(C)cc3F)C4=O)C2)C1=O` (some centres not stated) showed a max activation ([1]; filed as activator) of 139%.

`C[C@]1(c2cccc(Cl)c2F)CN(c2ccc([C@@H]3COCCN3)cn2)C(=O)c2cnc(NC3CN(C(=O)c4cccnn4)C3)c(F)c21` showed a max activation ([1]; filed as activator) of 120%.

In the case of `Cn1cc(F)c(N2CC(C)(c3cccc(Cl)c3F)c3c(cnc(NC4CN([C@H]5CCCNC5=O)C4)c3F)C2=O)n1` (some centres not stated), the EC50 (AMPK alpha2/beta2/gamma3) is reported as 27.2 nM and the max activation ([1]; filed as activator) is reported as 119%.

With `CC1(c2ccc(F)c(Cl)c2F)CN(c2ccc(CO)cn2)C(=O)c2cnc(NC3CN(C(=O)N4C[C@@H]5C[C@H]4CO5)C3)c(F)c21` (some centres not stated) the max activation ([1]; filed as activator) was 113%.

`C[C@]1(c2cccc(Cl)c2F)CN(c2cc(OC(F)F)ccn2)C(=O)c2cnc(NC3CN(C(=O)[C@@H]4C[C@@H]4F)C3)c(F)c21` gave a max activation [1] of 30.9%.

Reference: ChEMBL document CHEMBL6103606, “AMP-Activated Protein Kinase Activators as Therapeutic Targets To Treat Heart Failure and Diseases That Can Benefit from Improved Muscular Performance” (ACS Med Chem Lett, 2025)
